{"source": "patent US20230141718A1", "about": "“METHODS OF TREATING GLIOBLASTOMA” (CELGENE QUANTICEL RESEARCH, INC., priority 2021, published 2023)", "key": {"[1]": {"experiment": "Plasma pharmacokinetics of Compound A, CC-90010-GBM-002", "format": "in vivo, human", "parameters": "AUC / AUC(0-inf): concentration or dose not given beside the values", "settings": "for Cmax / AUC / AUC(0-inf): geometric mean; for tmax: median; for AUC: read-out: AUC24", "text": "The primary objectives of the study in this example were to establish the safety, maximum tolerated dose (MTD), and recommended phase 2 dose (RP2D) of Compound A. The preliminary efficacy, pharmacokinetics, and pharmacodynamics were also investigated.\nThe study described in this example (CC-90010-GBM-002/NCT04324840) is a phase 1B dose-finding study investigating standard of care of Compound A in combination with TMZ with or without radiotherapy (RT) in subjects with newly diagnosed GBM. Part A of the study is escalating the oral doses of Compound A in combination with adjuvant TMZ to estimate the MTD and/or the RP2D of Compound A as adjuvant therapy and escalating the oral doses of Compound A in combination with concomitant TMZ+radiotherapy (RT) to estimate the MTD and/or the RP2D of Compound A as concomitant therapy. Part B of the study is the safety and efficacy of Compound A administered at or below the MTD determined for the adjuvant therapy (AT) and concomitant therapy (CT).\nFor adjuvant therapy, Compound A and TMZ was administered for 6 cycles, then Compound A as a monotherapy was administered in 28-day cycles until disease progression, start of a new anticancer therapy, or withdrawal of consent or physician's decision. For adjuvant therapy, Compound A was administered at 15, 30, and 45 mg 4 days on/24 days off and TMZ was administered at 150 or 200 mg/m^2 QD Days 1-5, followed by Compound A at 45 mg 4 days on/24 days off. For adjuvant therapy, part B, Compound A was administered at RP2D and TMZ was administered at 150 or 200 mg/m^2, followed by Compound A at 45 mg 4 days on/24 days off.\nFor concomitant therapy, Compound A, TMZ, and RT were administered for 6 weeks, then 4-week break, followed by adjuvant Compound A and TMZ for 6 cycles then Compound A monotherapy in 28-day cycles until disease progression, start of a new anticancer therapy, withdrawal of consent or physician's decision. For concomitant therapy, part A, Compound A was administered at 15 mg or 30 mg QD Days 1-4 (weeks 1,5), TMZ was administered at 75 mg/m^2/day QD, and RT was administered at 2 Gy QD×5 days/week, for 42 days. This was then followed by a break in treatment therapy, e.g., from 1 to up to 4 weeks. Thereafter, adjuvant therapy was initiated by administering Compound A at 30 mg or 45 mg and TMZ at 150 or 200 mg/m^2 QD Days 1-5 of a 28-day cycle. Adjuvant therapy cycles were repeated from 2 to 6 times. After adjuvant therapy, was a monotherapy treatment. Monotherapy comprised administering Compound A at 45 mg 4 days on/24 days off.\nData presented as geometric mean (geometric CV %) for AUC and Cmax, mean (SD) for t1/2, and median (range) for tmax. AI AUC, accumulation index ratio of exposure measured at Day 4 to that after Day 1; AI Cmax, accumulation index ratio of maximum observed concentration at Day 4 to that after Day 1; AUC24, area under the concentration-time curve within a 24-hour dosing interval; Cmax, maximum observed concentration; NA, not applicable; t1/2, apparent terminal phase half-life."}, "[2]": {"experiment": "Plasma pharmacokinetics of Compound A, CC-90010-GBM-001 study", "format": "in vivo, human", "text": "The primary objectives of the study in this example were determination of tumor tissue concentration and plasma pharmacokinetics (PK) of Compound A. The secondary and exploratory objectives included safety, antitumor activity, cerebrospinal fluid concentration, and pharmacodynamics (PD).\nThe study described in this example (CC-90010-GBM-001 study/NCT04047303) enrolled patients with progressive or recurrent astrocytoma or recurrent glioblastoma who have failed radiation and chemotherapy, and who are candidates for surgical tumor resection as part of their salvage regimen.\nPatients were treated with Compound A at 30 mg daily on Day 1 to Day 4 prior to undergoing indicated tumor resection and to maintain platelet count above the minimum of […] recommended for surgery (Part A, preoperative treatment). Following recovery from surgery and a minimum of 4 weeks from the first dose of Compound A, subjects who were fit to continue were treated with Compound A at 45 mg on a 4 days on/24 days off schedule (180 mg per 28-day cycle). Maintenance treatment continued until disease progression, unacceptable toxicity, or withdrawal of consent.\nThe blood PK, blood PD, tumor PK and tumor PD data were available for 20, 12, 20, and 11 patients, respectively."}, "[3]": {"settings": "human, plasma, oral, LD, Part A"}, "[4]": {"settings": "human, plasma, oral, LD, Part B"}}, "note": "Several values for one entry are separate records, joined by “and”; a condition that tells them apart may be missing. Equal values may be shown once. Read-outs that look alike come from different tables or passages of the source.", "data": [{"smiles": "Cn1cc(-c2cc(S(C)(=O)=O)ccc2OCC2CC2)c2ccccc2c1=O", "note": "[Compound A, 4-[2-(cyclopropylmethoxy)-5-methylsulfonylphenyl]-2-methylisoquinolin-1-one]", "values": [{"measurement": "Exposure versus dose", "setting": "[1]; 15, 30, 45 mg with TMZ", "value": "increased proportionally with dose"}, {"measurement": "Cmax", "setting": "[1]; D1, GBM-002 (Part A) (n = 6)", "value": 306, "unit": "ng/mL"}, {"measurement": "tmax", "setting": "[1]; D1, Part A", "value": 2.0, "unit": "h"}, {"measurement": "Day 4 time to peak Compound A concentration", "setting": "[1]; Day 4", "value": "0.5 to 2.0 h and 0.5 to 4.0 h"}, {"measurement": "Cmax", "setting": "[1]; LD, GBM-002 (Part A) (n = 6)", "value": 822, "unit": "ng/mL"}, {"measurement": "T1/2", "setting": "[1]; LD, Part A, mean", "value": 68, "unit": "h"}, {"measurement": "tmax", "setting": "[1]; LD, Part A", "value": 1.5, "unit": "h"}, {"measurement": "AI AUC24 (accumulation index ratio, Day 4 to Day 1)", "setting": "[1]; Part A", "value": 3.05}, {"measurement": "AI Cmax (accumulation index ratio, Day 4 to Day 1)", "setting": "[1]; Part A", "value": 2.69}, {"measurement": "AI AUC24 (accumulation index ratio, Day 4 to Day 1)", "setting": "[1]; Part B", "value": 2.61}, {"measurement": "AI Cmax (accumulation index ratio, Day 4 to Day 1)", "setting": "[1]; Part B", "value": 2.11}, {"measurement": "effect of coadministration with RT and TMZ on Compound A PK", "setting": "[1]; Part B", "value": "did not appear to impact Compound A PK"}, {"measurement": "Cmax", "setting": "[1]; human, plasma, oral, D1, GBM-002 (Part B) (n = 17), read-out: Cmax", "value": 350, "unit": "ng/mL"}, {"measurement": "AUC", "setting": "[1]; human, plasma, oral, D1, Part A", "value": 4580, "unit": "ng·h/mL"}, {"measurement": "AUC", "setting": "[1]; human, plasma, oral, D1, Part B", "value": 4890, "unit": "ng·h/mL"}, {"measurement": "Cmax", "setting": "[1]; human, plasma, oral, LD, GBM-002 (Part B) (n = 17), read-out: Cmax", "value": 740, "unit": "ng/mL"}, {"measurement": "AUC(0-inf)", "setting": "[1]; [3]", "value": 49800, "unit": "ng·h/mL"}, {"measurement": "AUC", "setting": "[1]; [3]", "value": 13900, "unit": "ng·h/mL"}, {"measurement": "AUC(0-inf)", "setting": "[1]; [4]", "value": 48700, "unit": "ng·h/mL"}, {"measurement": "AUC", "setting": "[1]; [4]", "value": 12700, "unit": "ng·h/mL"}, {"measurement": "half-life", "setting": "[1]; human, plasma, oral, LD, Part B, mean, read-out: T1/2 (converted)", "value": 58, "unit": "h"}, {"measurement": "half-life", "setting": "[1]; human, plasma, oral, read-out: mean terminal half-life", "value": "60 to 70", "unit": "h"}, {"measurement": "GM AUC from 0 to 24 hours (AUC0-24)", "setting": "[2]; C1D1, 30 mg daily", "value": 5083, "unit": "ng·h/mL"}, {"measurement": "Median tmax", "setting": "[2]; C1D4", "value": 1.9, "unit": "h"}, {"measurement": "mean t1/2", "setting": "[2]; C1D4", "value": 46, "unit": "h"}, {"measurement": "GM AUC0-24", "setting": "[2]; C1D4, 30 mg daily", "value": "11,250 ng h/mL"}, {"measurement": "geometric mean peak plasma concentration", "setting": "[2]; Day 4", "value": 1.90, "unit": "µM"}, {"measurement": "median time to peak concentration", "setting": "[2]; Day 4", "value": 1.75, "unit": "h"}, {"measurement": "geometric mean (GM) Cmax", "setting": "[2]; cycle 1, day 1 (C1D1), 30 mg daily", "value": 392, "unit": "ng/mL"}, {"measurement": "GM Cmax", "setting": "[2]; cycle 1, day 4 (C1D4), 30 mg daily", "value": 720, "unit": "ng/mL"}]}]}
